Consider four compounds from patent publication US8735426B2, “Vanilloid receptor ligands, pharmaceutical compositions containing them, process for making them and use thereof for treating pain and other conditions” (Gruenenthal GmbH, priority 2007, dated 2014).

One may read the pIC50 as the IC50 on a negative log10 scale, so that one unit is a factor of ten. Read a high pIC50 as a small IC50. In general, pKi refers to the negative decadic logarithm of the Ki, by convention in mol/L. By inhibition is commonly meant the percentage by which the read-out fell short of the control.

pIC50, pKi: −log10 of the molar value.

Assay type in all cases: cell-based
The target of assay [1] is vanilloid receptor 1 (VR1/TRPV1-Receptor) (Homo sapiens, UniProt Q8NER1). Briefly: VR1 functional assay following pH-stimulus. As to conditions: for inhibition at 5 µM / inhibition at 10 µM: read-out: inhibition (in percent), Human following pH-stimulus.
The target in assay [2] is T1, vanilloid receptor 1 (VR1/TRPV1) (Rattus norvegicus, UniProt O35433).
T1 construct: The vertebral column is removed from decapitated rats; from tissue; host or cells: primary cells from rat dorsal root ganglia (DRG)
In words: Functional FLIPR Ca2+ influx assay on vanilloid receptor 1, capsaicin stimulus (Pharmacological Method I). The settings on record: for pKi: capsaicin stimulus; for inhibition at 1 µM / inhibition at 5 µM: capsaicin, read-out: inhibition (in percent), Rat Capsaicin.
Source text: The agonistic or antagonistic action of the substances to be investigated on the vanilloid receptor 1 (VR1/TRPV1) of the species rat can be determined using the following assay. According to this assay, the Ca^2+ influx through the receptor channel is quantified with the aid of a Ca^2+-sensitive dye (Type Fluo-4, Molecular Probes Europe BV, Leiden Netherlands) in a fluorescent imaging plate reader (FLIPR, Molecular Devices, Sunnyvale, USA).
The vertebral column is removed from decapitated rats and this is laid directly in a cold, i.e. ice bath-surrounded, HBSS buffer (Hank's buffered saline solution, Gibco Invitrogen GmbH, Karlsruhe, Germany) and 1% by volume of an AA solution (antibiotics/antimycotics solution, PAA, Pasching, Austria) is added. The vertebral column is cut in two longitudinally and the vertebral canal is removed together with fascias. Subsequently, the dorsal root ganglia (DRGs) are removed and in turn stored in cold HBSS buffer to which 1% by volume of an AA solution has been added. The DRGs completely freed from blood residues and spinal nerves are in each case transferred to 500 μL of cold collagenase Type 2 (PAA, Pasching, Austria) and incubated at 37° C. for 35 minutes. […] On completion of incubation, the enzyme solution is carefully pipetted off and 500 μL of complete medium are added to the DRGs in each case. The DRGs are in each case repeatedly suspended, drawn through No. 1, No. 12 and No. 16 needles by means of a syringe and transferred to 50 mL Falcon tubes and these are filled to 15 mL with complete medium. The contents of each Falcon tube are in each case filtered through a 70 μm Falcon filter insert and centrifuged at 1200 rpm and room temperature for 10 minutes. The resulting pellet is in each case taken up in 250 μL of complete medium and the cell count is determined.
The number of cells in the suspension is adjusted to 3×10^5 per mL and in each case 150 μL of this suspension are added to a well of the cell culture plates coated as described above.
The cells are then loaded with 2 μM Fluo-4 and 0.01% by volume of Pluronic F127 (Molecular Probes Europe BV, Leiden Netherlands) in HBSS buffer (Hank's buffered saline solution, Gibco Invitrogen GmbH, Karlsruhe, Germany) at 37° C. for 30 min, washed 3 times with HBSS buffer and, after a further incubation of 15 minutes at room temperature, employed in the FLIPR assay for Ca^2+ measurement. […] Quantification is carried out by measuring the highest fluorescence intensity (FC, fluorescence counts) over time.
Initially, the compounds to be tested (10 μM) are pipetted onto the cells and the Ca^2+ influx is compared with the control (capsaicin 10 μM). Information is gained therefrom in % activation relative to the Ca^2+ signal after addition of 10 μM of capsaicin (CP). After incubation for 5 minutes, 100 nM of capsaicin are applied and the influx of Ca^2+ is likewise determined.
Desensitizing agonists and antagonists lead to suppression of the Ca^2+ influx. The percentage inhibition is calculated in comparison with the maximum inhibition achieved with 10 μM of capsaicin.
Triplicate determinations (n=3) are carried out and these are repeated in at least 3 independent experiments (N=4).
Based on the percentage displacement effected by different concentrations of the compounds of the general formula I to be tested, IC50 inhibition concentrations are calculated which cause 50 percent displacement of capsaicin.

The target in the next assay is T2, vanilloid receptor (VR1) (Homo sapiens, UniProt Q8NER1).
T2 construct: expressed in transfected cells; host or cells: CHO-K1 cells (ECACC), stably transfected
In words: Functional FLIPR Ca2+ influx assay in CHO-K1 cells transfected with the VR1 gene, capsaicin stimulus (Pharmacological Method II). The settings on record: read-out: inhibition (in percent), Human Capsaicin.

T1 sequence (O35433 whole entry): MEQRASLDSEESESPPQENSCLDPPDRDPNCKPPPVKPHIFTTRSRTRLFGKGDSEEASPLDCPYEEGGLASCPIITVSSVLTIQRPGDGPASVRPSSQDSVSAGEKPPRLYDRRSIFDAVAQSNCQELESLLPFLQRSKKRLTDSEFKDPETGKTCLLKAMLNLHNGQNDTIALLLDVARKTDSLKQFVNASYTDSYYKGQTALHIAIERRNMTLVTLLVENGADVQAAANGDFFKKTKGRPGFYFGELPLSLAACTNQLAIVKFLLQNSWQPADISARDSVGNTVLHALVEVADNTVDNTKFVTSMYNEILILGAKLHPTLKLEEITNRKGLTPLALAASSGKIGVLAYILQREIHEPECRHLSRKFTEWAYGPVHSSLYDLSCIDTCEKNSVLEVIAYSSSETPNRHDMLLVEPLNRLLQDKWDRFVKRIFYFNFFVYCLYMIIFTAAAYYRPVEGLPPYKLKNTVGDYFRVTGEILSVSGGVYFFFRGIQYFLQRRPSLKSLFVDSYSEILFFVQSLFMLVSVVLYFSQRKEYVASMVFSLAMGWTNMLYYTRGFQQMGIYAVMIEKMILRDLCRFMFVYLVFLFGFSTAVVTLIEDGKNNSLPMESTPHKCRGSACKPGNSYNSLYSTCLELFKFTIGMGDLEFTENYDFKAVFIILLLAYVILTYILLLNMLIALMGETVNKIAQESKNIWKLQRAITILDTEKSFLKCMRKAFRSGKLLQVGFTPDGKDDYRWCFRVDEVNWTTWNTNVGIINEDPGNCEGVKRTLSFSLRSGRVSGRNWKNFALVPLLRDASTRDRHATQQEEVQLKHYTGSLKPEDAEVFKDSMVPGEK
T2 sequence (Q8NER1 whole entry): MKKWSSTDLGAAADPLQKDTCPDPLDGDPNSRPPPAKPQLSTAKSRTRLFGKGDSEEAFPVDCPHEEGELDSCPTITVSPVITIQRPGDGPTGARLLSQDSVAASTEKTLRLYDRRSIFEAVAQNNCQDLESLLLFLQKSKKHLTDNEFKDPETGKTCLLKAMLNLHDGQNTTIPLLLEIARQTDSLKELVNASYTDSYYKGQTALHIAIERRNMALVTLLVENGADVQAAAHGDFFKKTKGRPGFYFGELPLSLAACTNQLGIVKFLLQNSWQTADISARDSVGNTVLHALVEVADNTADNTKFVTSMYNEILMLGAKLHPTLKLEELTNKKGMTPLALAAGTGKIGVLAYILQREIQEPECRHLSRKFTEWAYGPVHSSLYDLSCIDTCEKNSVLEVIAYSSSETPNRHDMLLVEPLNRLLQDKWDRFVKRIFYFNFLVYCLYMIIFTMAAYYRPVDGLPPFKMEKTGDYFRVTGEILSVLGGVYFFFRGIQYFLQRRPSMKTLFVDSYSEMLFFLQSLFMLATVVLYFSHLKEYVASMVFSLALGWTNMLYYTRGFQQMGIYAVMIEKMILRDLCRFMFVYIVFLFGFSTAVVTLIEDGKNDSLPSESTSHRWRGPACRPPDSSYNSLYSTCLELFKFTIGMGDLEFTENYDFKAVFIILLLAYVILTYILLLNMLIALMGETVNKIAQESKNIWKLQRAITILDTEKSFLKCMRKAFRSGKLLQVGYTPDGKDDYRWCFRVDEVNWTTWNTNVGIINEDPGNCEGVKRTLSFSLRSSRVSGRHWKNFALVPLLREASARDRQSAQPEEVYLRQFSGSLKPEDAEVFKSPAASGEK
vanilloid receptor 1 (VR1/TRPV1-Receptor), sequence (Q8NER1 whole entry): as above

As for `CS(=O)(=O)Nc1ccc(C(C(=O)NCc2ccc(C(F)(F)F)nc2SC2CCCCC2)C2CCCCC2)cc1F` (stereo not shown) [Example 2, 2-Cyclohexyl-N-((2-(cyclohexylthio)-6-(trifluoromethyl)pyridin-3-yl)methyl)-2-(3-fluoro-4-(methylsulfonamido)phenyl)acetamide], the pIC50 in assay [1] is 5.86. For the same compound, the negative-log Ki (pKi) in assay [2] was 7.01. For the same compound, on vanilloid receptor (VR1), the inhibition at 1 µM was determined as 2% and the inhibition at 5 µM came out at 31%.

Take `CCC(C)(C(=O)NCc1ccc(C(F)(F)F)nc1SC1CCCCC1)c1ccc(NS(C)(=O)=O)c(F)c1` (stereo not shown) [Example 8, N-((2-(Cyclohexylthio)-6-(trifluoromethyl)pyridin-3-yl)methyl)-2-(3-fluoro-4-(methylsulfonamido)phenyl)-2-methylbutanamide]: the inhibition at 5 µM was 0% in assay [1], 99% in assay [2] and 80% on vanilloid receptor (VR1). Besides, in assay [1], the inhibition at 10 µM was determined as 20%. The values for the inhibition at 1 µM (in assay [2]; at vanilloid receptor (VR1)) were 26% and 0%, respectively.

As for `CC1CCN(c2nc(C(F)(F)F)ccc2CNC(=O)C2(c3ccc(NS(C)(=O)=O)c(F)c3)CCCCC2)CC1` [Example 15, 1-(3-Fluoro-4-(methylsulfonamido)phenyl)-N-((2-(4-methylpiperidin-1-yl)-6-(trifluoromethyl)pyridin-3-yl)methyl)cyclohexanecarboxamide], in assay [1], the inhibition at 5 µM is 7% and the inhibition at 10 µM came out at 32%. In assay [2], the inhibition at 1 µM amounted to 7% and the inhibition at 5 µM stood at 69%. Also, at vanilloid receptor (VR1), the inhibition at 1 µM is 0% and the inhibition at 5 µM is 33%.

Turning to `CS(=O)(=O)Nc1ccc(C2(C(=O)NCc3ccc(C(F)(F)F)nc3SC3CCCCC3)CCCC2)cc1F` [Example 14, N-((2-(Cyclohexylthio)-6-(trifluoromethyl)pyridin-3-yl)methyl)-1-(3-fluoro-4-(methylsulfonamido)phenyl)cyclopentanecarboxamide], in assay [1], the inhibition at 5 µM is 4% and the inhibition at 10 µM came to 33%. In assay [2], this compound gave a pKi of 6.93. Further, the inhibition at 0.1 µM on vanilloid receptor (VR1) (@ 0.1 μM) stood at 0%. Further, at vanilloid receptor (VR1), the inhibition at 1 µM came to 20% and the inhibition at 5 µM is 77%.
